{
  "source": "paper PMC3164776",
  "about": "(Biochemistry, 2010)",
  "key": {"KB-V1 cells": {"test_system": "KB-V1 cells", "conditions": "for effect on MDR phenotype: cytotoxicity of paclitaxel and vinblastine, Supplemental Information 2; for change of LD50 / resistance in presence of 5-CHInd: 10 μM 5-CHInd over 72 hours, Figure 4A"}, "P-gp [1]": {"target": "T1, P-gp (Homo sapiens, UniProt P08183)", "T1 sequence (P08183 whole entry)": "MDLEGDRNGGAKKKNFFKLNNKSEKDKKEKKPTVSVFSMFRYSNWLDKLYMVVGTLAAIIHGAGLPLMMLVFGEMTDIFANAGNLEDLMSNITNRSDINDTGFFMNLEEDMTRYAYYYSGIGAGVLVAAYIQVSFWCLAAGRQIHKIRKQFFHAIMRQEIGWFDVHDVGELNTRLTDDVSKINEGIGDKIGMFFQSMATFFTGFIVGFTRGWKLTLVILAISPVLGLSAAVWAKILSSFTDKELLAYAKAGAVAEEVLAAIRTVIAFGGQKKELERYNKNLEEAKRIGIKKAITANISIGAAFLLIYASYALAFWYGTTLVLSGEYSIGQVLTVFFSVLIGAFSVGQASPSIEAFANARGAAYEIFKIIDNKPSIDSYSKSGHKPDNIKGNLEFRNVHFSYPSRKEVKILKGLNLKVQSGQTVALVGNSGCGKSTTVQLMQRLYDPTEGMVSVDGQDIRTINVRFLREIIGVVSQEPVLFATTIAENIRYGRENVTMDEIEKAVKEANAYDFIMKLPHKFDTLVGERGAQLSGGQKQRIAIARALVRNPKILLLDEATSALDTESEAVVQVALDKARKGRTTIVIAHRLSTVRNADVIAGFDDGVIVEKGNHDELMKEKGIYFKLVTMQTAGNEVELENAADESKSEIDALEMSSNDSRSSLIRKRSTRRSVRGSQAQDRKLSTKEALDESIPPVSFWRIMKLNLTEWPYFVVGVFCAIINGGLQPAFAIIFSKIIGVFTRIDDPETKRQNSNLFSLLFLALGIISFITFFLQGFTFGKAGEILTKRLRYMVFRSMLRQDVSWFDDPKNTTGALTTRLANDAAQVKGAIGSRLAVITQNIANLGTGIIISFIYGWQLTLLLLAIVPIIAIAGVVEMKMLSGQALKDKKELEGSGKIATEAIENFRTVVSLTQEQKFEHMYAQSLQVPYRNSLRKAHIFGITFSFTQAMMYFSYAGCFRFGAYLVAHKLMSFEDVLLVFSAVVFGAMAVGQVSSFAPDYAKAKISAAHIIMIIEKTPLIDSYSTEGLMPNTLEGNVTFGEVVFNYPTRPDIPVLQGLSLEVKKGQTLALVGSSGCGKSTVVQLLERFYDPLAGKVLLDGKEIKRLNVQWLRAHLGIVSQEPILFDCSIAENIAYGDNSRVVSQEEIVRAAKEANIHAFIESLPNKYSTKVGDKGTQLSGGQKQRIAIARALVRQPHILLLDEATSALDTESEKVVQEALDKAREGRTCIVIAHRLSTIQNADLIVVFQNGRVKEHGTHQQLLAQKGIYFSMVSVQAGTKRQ", "experiment": "P-gp ATPase assay, hydrolysis of [γ-32P]-ATP by P-gp membranes", "assay_type": "biochemical"}, "KB3-1 cells": {"test_system": "KB3-1 cells", "experiment": "MTT cytotoxicity assay in KB3-1 cells", "assay_type": "cell-based"}, "[2]": {"target": "P-gp (MDCK-MDR1 monolayers) (Homo sapiens, UniProt P08183)", "sequence (P08183 whole entry)": "as above", "experiment": "Monolayer efflux experiment, MDCK-MDR1 monolayers"}, "MDCK monolayers": {"test_system": "MDCK monolayers", "experiment": "Monolayer efflux experiment, MDCK monolayers", "conditions": "substance alone (10 μM 5-CHInd, 3 μM rhodamine 123, 4 μM calcein-AM)"}, "P-gp [3]": {"target": "T1, P-gp", "experiment": "PDSP cell-based screen: accumulation of calcein-AM in Caco-2 cells", "conditions": "analogs of the screened nucleoside library"}, "P-gp (MDR1)": {"target": "P-gp (MDR1) (Homo sapiens, UniProt P08183)", "sequence (P08183 whole entry)": "as above", "experiment": "Monolayer efflux experiment, MDCK-MDR1 monolayers", "conditions": "dog"}, "[4]": {"experiment": "Monolayer efflux experiment, MDCK monolayers", "conditions": "dog"}, "[5]": {"conditions": "substance alone (10 μM 5-CHInd, 3 μM rhodamine 123, 4 μM calcein-AM), mean ± SEM"}},
  "note": "Where “and” joins values, the source holds several entries; their conditions need not be identical. Identical values can stand only once. Like-named read-outs stand apart in the source and are kept apart here.",
  "data": [
    {"compound": "OC[C@H]1O[C@@H](n2ccc3cc(C4=CCCCC4)ccc32)C[C@@H]1O", "note": "[5-CEInd, 5-cyclohexene indolyl 2′-deoxyribose]", "values": [
      {"measurement": "effect on MDR phenotype", "setting": "KB-V1 cells; KB-V1", "result": "no significant effects on MDR phenotype"}
    ]},
    {"compound": "OC[C@H]1O[C@@H](n2ccc3cc(C4CCCCC4)ccc32)C[C@@H]1O", "note": "[5-CHInd, 5-cyclohexyl indolyl 2′-deoxyribose]", "values": [
      {"measurement": "Ki", "setting": "P-gp [1]", "result": 6.5, "unit": "nM"},
      {"measurement": "Km", "setting": "P-gp [1]", "result": "0.06 ± 0.01", "unit": "µM"},
      {"measurement": "Vmax", "setting": "P-gp [1]", "result": "16 ± 0.2", "unit": "nmol Pi/min/mg protein"},
      {"measurement": "fold by which Ki is lower than Km", "setting": "P-gp [1]; Ki vs Km value of 60 nM", "result": "~ 9 fold"},
      {"measurement": "LD50", "setting": "KB3-1 cells; KB3-1 MDR −/−, 72 hours post-treatment, MTT", "result": "45 ± 3", "unit": "µM"},
      {"measurement": "maximal non-toxic dose", "setting": "KB-V1 cells; 48 hour period", "result": 50, "unit": "µM"},
      {"measurement": "maximal non-toxic dose", "setting": "KB-V1 cells; 72 hour period", "result": 10, "unit": "µM"},
      {"measurement": "LD50", "setting": "KB-V1 cells; KB-V1 (MDR positive), 72 hours post-treatment, MTT", "result": "44 ± 5", "unit": "µM"},
      {"measurement": "concentration at which cytotoxic", "setting": "KB-V1 cells; MTT assay", "result": "greater than 50 μM"},
      {"measurement": "BL→AP/AP→BL (Peff ratio)", "setting": "[2]; [5]", "result": "11.1 and 11.1 ± 2.5"},
      {"measurement": "BL→AP/AP→BL (Peff ratio)", "setting": "MDCK monolayers", "result": "8.7 ± 1.3"}
    ]},
    {"compound": "O=[N+]([O-])c1ccc2c(ccn2C2CC(O)C(CO)O2)c1", "note": "(stereo not shown) [5-NInd]", "values": [
      {"measurement": "interaction with P-gp", "setting": "P-gp [3]", "result": "do not interact with P-gp"}
    ]},
    {"compound": "OC[C@H]1O[C@@H](n2ccc3cc(-c4ccccc4)ccc32)C[C@@H]1O", "note": "[5-PhInd, 5-phenyl indolyl 2′-deoxyribose]", "values": [
      {"measurement": "effect on MDR phenotype", "setting": "KB-V1 cells; KB-V1", "result": "no significant effects on MDR phenotype"}
    ]},
    {"compound": "COc1cc2c(c(OC)c1OC)-c1ccc(OC)c(=O)cc1[C@@H](NC(C)=O)CC2", "note": "[Colchicine, reference compound]", "values": [
      {"measurement": "Km", "setting": "P-gp [1]", "result": "37 ± 8", "unit": "µM"},
      {"measurement": "change of LD50 / resistance in presence of 5-CHInd", "setting": "KB-V1 cells; KB-V1", "result": "did not influence the LD50 values"}
    ]},
    {"compound": "COc1cccc2c1C(=O)c1c(O)c3c(c(O)c1C2=O)C[C@@](O)(C(=O)CO)C[C@@H]3O[C@H]1C[C@H](N)[C@H](O)[C@H](C)O1", "note": "[Doxorubicin, reference compound]", "values": [
      {"measurement": "change of LD50 / resistance in presence of 5-CHInd", "setting": "KB-V1 cells; KB-V1", "result": "cells become more resistant"}
    ]},
    {"compound": "CC(=O)O[C@H]1C(=O)[C@@]2(C)[C@H]([C@H](OC(=O)c3ccccc3)[C@]3(O)C[C@H](OC(=O)[C@H](O)[C@@H](NC(=O)c4ccccc4)c4ccccc4)C(C)=C1C3(C)C)[C@]1(OC(C)=O)CO[C@@H]1C[C@@H]2O", "note": "[Paclitaxel, reference compound]", "values": [
      {"measurement": "potentiating effect of 5-CHInd", "setting": "KB3-1 cells; KB3-1, does not overexpress P-gp, Supplemental Information 1", "result": "not observed"},
      {"measurement": "change of LD50 / resistance in presence of 5-CHInd", "setting": "KB-V1 cells; KB-V1", "result": "decreases"},
      {"measurement": "LD50", "setting": "KB-V1 cells; KB-V1, 48 hours, in presence of 50 μM 5-CHInd", "result": "0.49 ± 0.03", "unit": "µM"},
      {"measurement": "LD50", "setting": "KB-V1 cells; KB-V1, 48 hours, no treatment with 5-CHInd", "result": "4.0 ± 0.24", "unit": "µM"}
    ]},
    {"compound": "COC(=O)c1ccccc1-c1c2ccc(=N)cc-2oc2cc(N)ccc12", "note": "[Rhodamine 123]", "values": [
      {"measurement": "BL→AP/AP→BL (Peff ratio)", "setting": "[2]; [5]", "result": 72.7},
      {"measurement": "efflux ratio at 60 min, 3 μM", "setting": "P-gp (MDR1)", "result": "72.7 ± 15.3"},
      {"measurement": "efflux ratio at 60 min, 3 μM", "setting": "[4]", "result": "1.2 ± 0.2"}
    ]},
    {"compound": "CC[C@]1(O)C[C@@H]2CN(CCc3c([nH]c4ccccc34)[C@@](C(=O)OC)(c3cc4c(cc3OC)N(C)[C@H]3[C@@](O)(C(=O)OC)[C@H](OC(C)=O)[C@]5(CC)C=CCN6CC[C@]43[C@@H]65)C2)C1", "note": "[Vinblastine, reference compound]", "values": [
      {"measurement": "change of LD50 / resistance in presence of 5-CHInd", "setting": "KB-V1 cells; KB-V1", "result": "cells become more resistant"}
    ]},
    {"compound": "Calcein-AM", "values": [
      {"measurement": "BL→AP/AP→BL (Peff ratio)", "setting": "[2]; 4 μM calcein-AM + 10 μM 5-CHInd", "result": "~ 1"},
      {"measurement": "BL→AP/AP→BL (Peff ratio)", "setting": "[2]; [5]", "result": "2940 ± 120"},
      {"measurement": "BL→AP/AP→BL (Peff ratio)", "setting": "MDCK monolayers", "result": "2.6 ± 0.3"}
    ]}
  ]
}
